# Results taken from patent US20100197602A1, “USE OF FOLLICULAR GONADOTROPIN RELEASING PEPTIDE AS A THERAPEUTIC AGENT IN THE TREATMENT OF STREPTOCOCCUS PNEUMONIAE INFECTION” (priority 2007, published 2010).
# Residues, ends and D or L forms follow the SMILES beside them.
# What was measured:
# HIV-1IIIB = experiment: HIV-1 antiviral assay (CPE reduction, MTS); assay type: cell-based; settings: peptide 10 micrograms per ml, 6 days post-infection
# Streptococcus pneumoniae = assay type: cell-based; settings: 5 micrograms per ml
# in vitro [1] = settings: human, MRC-5 cells (human embryonal lung fibroblasts)
# [2] = Cell viability in HepG2-2.2.15 cells (dye uptake) of the HBV assay; settings: human
# Pseudomonas aeruginosa = assay type: cell-based; settings: 5 micrograms per ml
# in vitro [3] = settings: human, CEM-SS cells
# MRSA = settings: 5 micrograms per ml
# HCMV strain AD169 = experiment: HCMV plaque reduction assay; assay type: cell-based; settings: HCMV AD169 in MRC-5 cells; peptide 10 micrograms per ml; 7-10 days
# Text: Ganciclovir was used as positive control.
compound,measurement,setting,value
Cc1cn([C@H]2C[C@H](N=[N+]=[N-])[C@@H](CO)O2)c(=O)[nH]c1=O [AZT],% CPE reduction in HIV-1 infected CEM-SS cells,HIV-1IIIB,99%
"C[C@@H](O)[C@H](N)C(=O)N[C@@H](CC(=O)O)C(=O)N[C@H](C(=O)N[C@@H](CO)C(=O)N[C@@H](Cc1c[nH]cn1)C(=O)N[C@@H](Cc1c[nH]cn1)C(=O)N[C@@H](CC(=O)O)C(=O)N[C@@H](CCC(N)=O)C(=O)N[C@@H](CC(=O)O)C(=O)N[C@@H](Cc1c[nH]cn1)C(=O)N1CCC[C@H]1C(=O)N[C@H](C(=O)N[C@@H](Cc1ccccc1)C(=O)N[C@@H](CC(N)=O)C(=O)O)[C@@H](C)O)[C@@H](C)O [FGRP, Thr-Asp-Thr-Ser-His-His-Asp-Gln-Asp-His-Pro-Thr-Phe-Asn-OH] (H-TDTSHHDQDHPTFN-OH)",% inhibition,Streptococcus pneumoniae,100.0%
same,viability at 144 h,in vitro [1],100%
same,"viability at 144 h, 10 micrograms per ml",[2],100%
same,% inhibition,Pseudomonas aeruginosa,0.0%
same,viability at 10 micrograms per ml,in vitro [3],100%
same,% inhibition,MRSA,0.0%
Nc1nc(O)c2ncn(COC(CO)CO)c2n1 [Ganciclovir],% plaque reduction,HCMV strain AD169,100%
